We go through one compound from publication PMC4368482 (Nature, 2014).

The target of the experiment is T1, tyrosyl tRNA synthetase (TyrRS) (Homo sapiens, UniProt P54577).
T1 sequence (P54577 1-528): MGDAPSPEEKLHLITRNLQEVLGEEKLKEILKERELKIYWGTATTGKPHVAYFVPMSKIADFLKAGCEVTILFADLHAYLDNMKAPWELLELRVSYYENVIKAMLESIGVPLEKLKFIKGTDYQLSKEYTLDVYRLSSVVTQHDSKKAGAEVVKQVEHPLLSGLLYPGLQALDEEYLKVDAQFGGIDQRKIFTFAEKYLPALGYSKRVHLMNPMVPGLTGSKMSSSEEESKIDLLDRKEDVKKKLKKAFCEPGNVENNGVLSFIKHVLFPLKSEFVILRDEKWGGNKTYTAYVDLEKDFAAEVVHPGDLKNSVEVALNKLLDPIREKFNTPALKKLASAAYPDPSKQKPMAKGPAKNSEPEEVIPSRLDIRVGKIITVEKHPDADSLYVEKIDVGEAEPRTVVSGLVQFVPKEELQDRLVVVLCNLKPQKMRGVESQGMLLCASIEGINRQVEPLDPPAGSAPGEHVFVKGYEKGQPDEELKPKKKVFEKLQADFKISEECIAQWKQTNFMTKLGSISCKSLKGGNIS
Description: X-ray co-crystal structure. It counts as biochemical.

A word on the Ki: it is a measure of affinity in units of concentration, obtained from inhibition or displacement. Read a low Ki as higher affinity. `Oc1ccc(/C=C/c2cc(O)cc(O)c2)cc1` [RSV, resveratrol] yielded an inhibition constant Ki of 22 µM.
